{"source": "patent US20240376087A1", "about": "“PYRAZOLE AMIDE BASED COMPOUNDS AND USES AGAINST BREAST CANCER THEREOF” (COUNCIL OF SCIENTIFIC AND INDUSTRIAL RESEARCH AN INDIAN …, priority 2021, published 2024)", "key": {"[1]": {"tested_on": "normal human lung fibroblast cells (WI 30)", "assay": "Toxicity in normal fibroblast cells (phase contrast images)", "format": "cell-based", "settings": "normal fibroblast cells (WI30), FIG. 3", "protocol": "(§1) The cells used for the study, human breast adenocarcinoma (MDA-MB-231) and normal human lung fibroblast cells ([…]) were procured from NCCS, Pune, India, and ATCC, VA, USA, respectively. Cells were maintained in standard culture conditions in DMEM supplemented with 10% FBS and 100 units/ml penicillin/streptomycin under 5% CO2 at 37° C. in a humidified incubator. After 2-3 passages, the cells were seeded on cell culture dishes and were used for different experiments.\n(§2) Morphological analysis of the cells treated with NIIST-AC-1 at different concentrations were monitored using phase contrast microscope Nikon EclipseTS100 (Nikon Instruments Inc., Melville, NY, USA, Magnification 20×) and SEM (Zeiss EVO 18 Special Edition) at ×2k and ×5k magnification."}, "MDA MB 231 cells [2]": {"tested_on": "MDA MB 231 cells", "assay": "Anoikis assay", "format": "cell-based, human", "settings": "MDA MB 231, anoikis chamber, 48 hrs", "protocol": "The effect of NIIST-AC-1 on anoikis resistance was analyzed using Anoikis Assay Kit by following the manufacturer's protocol. The cells were seeded in ultralow attachment plate 9anoikis chamber) after pretreating with different concentrations of NIIST-AC-1. After 48 hrs, the cells were observed under the phase-contrast microscope (Nikon Eclipse TS100) for observing the attachment and images were captured using NIS-Elements 3.21.00 imaging software. The viability of the cells was also measured by MTT assay."}, "MDA MB 231 cells [3]": {"tested_on": "MDA MB 231 cells", "assay": "Cytotoxicity studies by MTT assay", "format": "cell-based", "settings": "Homo sapiens, 24 hrs, read-out: GI50 (50% growth inhibition value)", "protocol": "as §1\nA 10 mM stock solution of I-8 was prepared in DMSO and diluted with DMEM supplemented with 5% FBS for each experiment so that the DMSO concentration was <0.1% in the treated cells. Paclitaxel at a concentration of 50 nM was used as the positive control.\nMTT assay was used for testing the cytotoxicity of NIIST-AC-1 in MDA MB 231 cells. 1×10^4 cells/well were seeded in 96 well culture plates and were treated with different concentrations of NIIST-AC-1 for 24 hrs. The percentage of viable cells were monitored based on the purple colour developed by MTT at 570 nm and from that the concentration of NIIST-AC-1 required for 50% inhibition of the viability was calculated as the GI50 value."}, "MDA MB 231 cells [4]": {"tested_on": "MDA MB 231 cells", "assay": "Glucose uptake study (2-NBDG, FACS)", "format": "cell-based, human", "protocol": "The effect of NIIST-AC-1 on the uptake of glucose was analyzed by flow cytometry using 2-NBDG. After incubation of the cells with different concentrations of NIIST-AC-1, the cell culture medium was replaced with medium containing fluorescent 2-NBDG and incubated for 30 minutes. Then the samples were analyzed using BD FACSAria II (BD Biosciences) at FITC range (excitation, 465 nm; emission 540-nm bandpass filter). The mean fluorescence intensities of different groups were analyzed by BD FACSDiva ver 6.1.3 software and corrected for autofluorescence from unlabeled cells."}, "MDA MB 231 cells [5]": {"tested_on": "MDA MB 231 cells", "assay": "Phosphatidyl serine translocation by annexin V staining", "format": "cell-based, human", "settings": "MDA MB 231, annexin V staining, 24 hrs", "protocol": "The translocation of phosphatidyl serine to the outer leaflet of plasma membrane during apoptosis was studied by Annexin V-Cy3™ Apoptosis Detection Kit. After treatment with different concentrations of NIIST-AC-1 for 24 hrs, the cells were washed and stained with annexin V for 10 min. After the staining solution was removed, the binding buffer was added and the cells observed under a spinning disc fluorescent microscope (BD Biosciences), and images were taken using the software BD Atto Vision version 1.6."}, "caspase-9": {"tested_on": "caspase-9", "assay": "Assay of caspase 9 (fluorometric, cell lysates)", "format": "cell-based, human", "settings": "MDA MB 231 cell lysates, LEHD-AFC", "protocol": "(§3) The activities of the initiator caspase-9 and downstream executioner caspase-3 were measured using Fluorometric Assay Kit. The caspase activity in the cell lysates of control and treated cells were measured by using the fluorescent substrate DEVD-AFC (for caspase-3 activity) and LEHD-AFC (for caspase-9 activity). Samples were read at 400-nm excitation filter and 505-nm emission filter in a fluorescent microplate reader (BioTek Synergy HT) using Gen5™ ver 1.05.11 software, and the results were expressed as relative units in terms of fluorescence."}, "[6]": {"tested_on": "histone deacetylase 1 (HDAC-1)", "assay": "HDAC inhibition assay (colorimetric, cell lysates)", "format": "biochemical, human", "settings": "enzyme assay, MDA MB 231 cell lysates", "protocol": "The histone deacetylase inhibitory activity was measured in the cell lysates using the colorimetric assay kit where we have used the substrate Ac-Lys (Ac)-pNA and trichostatin A as the positive control. After the reaction, the absorbance was measured at 400 nm and the percentage inhibition was calculated by comparing with the deacetylated standard Ac-Lys-pNA."}, "[7]": {"tested_on": "proteins in the extrinsic and intrinsic pathway of apoptosis", "assay": "Protein array for expression of apoptotic proteins", "format": "cell-based, human", "settings": "MDA MB 231 lysates", "protocol": "The expression of various proteins in the extrinsic and intrinsic pathway of apoptosis on treatment with NIIST-AC-1 was analyzed by using antibody pair-based assay, where the 43 targets were captured on a membrane. Lysates of control and treated cells were spotted to the membrane as protein equivalents. Paired biotinylated detector antibodies and streptavidin HRP were used for development using chemiluminescent method. Comparison of the membrane were done using densitometry software."}, "MDA MB 231 cells [8]": {"tested_on": "MDA MB 231 cells", "assay": "Growth inhibitory study of I-8 in combination with paclitaxel", "format": "cell-based, human", "settings": "5 μM I-8 in combination with paclitaxel"}, "MDA MB 231 cells [9]": {"tested_on": "MDA MB 231 cells", "assay": "Morphological analysis by phase contrast and electron microscopy", "format": "cell-based, human", "settings": "MDA MB 231, phase contrast and SEM", "text": "as §2"}, "MDA MB 231 cells [10]": {"tested_on": "MDA MB 231 cells", "assay": "Colony formation assay", "format": "cell-based, human", "settings": "48 hr pretreatment, 14 days", "protocol": "The pretreated cells with different concentrations of NIIST-AC-1 for 48 hr were plated in six well plates and allowed to grow and colonize for 14 days. The colonies were stained with crystal violet for 2 hr after fixing with acetic acid and methanol. The visible colonies were photographed and the colon area was quantified using ImageJ 1.52p software."}, "caspase-3": {"tested_on": "caspase-3", "assay": "Assay of caspase 3 (fluorometric, cell lysates)", "format": "cell-based, human", "settings": "MDA MB 231 cell lysates, DEVD-AFC", "protocol": "as §3"}, "MMP-9": {"tested_on": "MMP-9", "assay": "Gelatin zymography for MMP activity", "format": "cell-based, human", "settings": "gelatin zymography of spent medium", "protocol": "The activity of MMPs in the spent medium from the cell culture was allowed to react with the substrate gelatin impregnated in the SDS-PAGE gel. After electrophoresis, the gel was washed with Triton solution and incubated with activation buffer 50 mM Tris containing 0.2 M NaCl and 5 mM CaCl2) at 37° C. for 18-20 h for reaction to occur. The gel was stained with Coomassie Brilliant Blue solution and after destaining, gelatin cleaved zones by MMPs were observed as white clear zones which were imaged using ChemiDoc™ MP System with IMAGE LAB™ Software (Bio-Rad)."}}, "note": "“Also recorded” adds a separate entry of the source.", "data": [{"compound": "COc1cc(-c2cc(C(=O)NCc3cc(C(F)(F)F)cc(C(F)(F)F)c3)[nH]n2)cc(OC)c1OC", "note": "[I-8, N-(3,5-bis(trifluoromethyl)benzyl)-3-(3,4,5-trimethoxyphenyl)-1H-pyrazole-5-carboxamide]", "values": [{"measurement": "cytotoxicity in normal fibroblasts", "setting": "[1]", "result": "without having cytotoxicity; also recorded: no toxic"}, {"measurement": "detachment induced cell death (anoikis)", "setting": "MDA MB 231 cells [2]", "result": "induced detachment induced cell death (anoikis)"}, {"measurement": "GI50", "setting": "MDA MB 231 cells [3]", "result": 15.1, "unit": "µM"}, {"measurement": "glucose uptake", "setting": "MDA MB 231 cells [4]", "result": "significant reduction in the uptake of glucose"}, {"measurement": "phosphatidyl serine translocation", "setting": "MDA MB 231 cells [5]", "result": "phosphatidyl serine translocation"}, {"measurement": "caspase 9 activity", "setting": "caspase-9", "result": "upregulated caspase activity"}, {"measurement": "HDAC inhibitory activity", "setting": "[6]", "result": "significant inhibition; also recorded: substantial histone deacetylase 1 (HDAC-1) inhibitory activity"}, {"measurement": "expression of apoptotic proteins (intrinsic and extrinsic pathways)", "setting": "[7]", "result": "upregulated the proteins involved in intrinsic and extrinsic pathways"}, {"measurement": "lowering of paclitaxel concentration required for 50% growth inhibition", "setting": "MDA MB 231 cells [8]", "result": 10, "unit": "times"}, {"measurement": "morphological changes of the cells", "setting": "MDA MB 231 cells [9]", "result": "significant morphological changes"}, {"measurement": "colony formation", "setting": "MDA MB 231 cells [10]", "result": "inhibition of colony formation"}, {"measurement": "caspase 3 activity", "setting": "caspase-3", "result": "upregulated caspase activity"}, {"measurement": "MMP-9 activity", "setting": "MMP-9", "result": "reduced"}]}]}
